Measured values published in patent US6395876B1 (Medical College of Georgia Research Institute, Inc., priority 1997, dated 2002).
Where “and” joins values, the source holds several entries; their conditions need not be identical. Identical values can stand only once. Entries after “also recorded” stand apart in the source; their conditions may differ. Like-named read-outs stand apart in the source and are kept apart here. Blank lines part the entries; values can stand above or below the molecule they belong to.

How the values were obtained:
[1] = test system: high affinity tryptophan transporter; experiment: Competition of unlabeled substrates with radiolabeled tryptophan uptake, high-affinity system, macrophages; format: cell-based, human
Protocol: Uptake measurements. Single cell suspensions were obtained by treating macrophage monolayers with 2 mM EDTA in Hanks balanced salt solution for 15 minutes at room temperature. Cells were washed twice in Tris-choline buffer (150 mM choline chloride, 10 mM tris, pH 7.4), suspended in Tris-choline at between one and 2×10^6 cells/ml, and 100 μl/well added to 96 well microtiter plates. Titrations of radiolabeled amino acids were then transferred to the assay plate and uptake allowed to proceed for 10 minutes (the linear range). At the end of the assay period, wells were harvested simultaneously onto glass-fiber filters and washed vigorously for 30 seconds with phosphate buffered saline solution using a Tomtec 96 well parallel harvester. Nonspecific binding of radioactivity to the filters (based on wells without cells) was typically less than 10% of the total signal, and was subtracted from each data point. All assays were performed in triplicate; where error bars are not shown the SD between replicates was less than 10%. In all assays, the uptake rate (V) was normalized per 1×10^6 cells (expressed as pmol 10^6 cells^−1. 10 min^−1). Normalization to milligrams protein was considered less informative because protein content can change markedly during macrophage differentiation, independently of other functional attributes.

[2] = test system: system L; experiment: Competition of unlabeled substrates with radiolabeled tryptophan uptake, system L component, macrophages; format: cell-based, human; settings: for Ki: read-out: Ki (fit to Equation 1, single-system competitive model)
Source text: (§1) For competitive inhibition studies, the Ki value for each competitor was estimated by fitting the measured inhibition curve to the formula in Equation 1 (Cheng and Prusoff 1973, Biochem. Pharmacol. 22, 3099-3108). [formula]
(§2) where [S] is the concentration of labeled substrate, [I] is the concentration of unlabeled inhibitor, Vi is the observed rate of uptake in the presence of inhibitor, Ki is the putative affinity constant of the inhibitor for the transporter, and Km and Vmax have their customary meanings.

[3] = test system: system L; experiment: Radiolabeled amino acid uptake saturation kinetics, lower-affinity system, macrophages; format: cell-based, human; settings: for Km: read-out: Km of low affinity transporter (system L)
Source text: Monocyte isolation and culture.
Analysis of saturation kinetics.

[4] = test system: system L; experiment: Competition of unlabeled tryptophan for uptake of radiolabeled leucine or phenylalanine, macrophages; format: cell-based, human; settings: labeled leucine or phenylalanine 125 nM
Source text: as §1, §2

[5] = test system: monocyte derived macrophages; experiment: Total tryptophan uptake in monocyte-derived macrophages (sodium and temperature dependence); format: cell-based, human
Protocol: The majority of tryptophan uptake is sodium-independent. Uptake in the absence of sodium was 86±6% of uptake in saline, n=4 Therefore all subsequent assays were performed in the absence of sodium.

[6] = test system: high affinity tryptophan transporter
Protocol: Human peripheral blood monocytes were isolated from healthy volunteer donors by leukocytapheresis and counterflow centrifugal elutriation, following appropriate informed consent under a protocol approved by our Institutional Review Board.
Single cell suspensions were obtained by treating macrophage monolayers with 2 mM EDTA in Hanks balanced salt solution for 15 minutes at room temperature. Cells were washed twice in Tris-choline buffer (150 mM choline chloride, 10 mM tris, pH 7.4), suspended in Tris-choline at between one and 2×10^6 cells/ml, and 100 μl/well added to 96 well microtiter plates. […] Nonspecific binding of radioactivity to the filters (based on wells without cells) was typically less than 10% of the total signal, and was subtracted from each data point. […] In all assays, the uptake rate (V) was normalized per 1×10^6 cells (expressed as pmol 10^6 cells^−1. 10 min^−1). […]
Uptake kinetics were analyzed using an Eadie-Hofstee transformation (V/[S] vs. V) to identify linear concentration ranges for each transporter. Data from these two ranges were then analyzed separately using double-reciprocal (Lineweaver-Burk, 1/[S] vs. 1/V) plots to determine Km and Vmax. […] Kinetic parameters were calculated on a minimum of 4-6 points, and were considered reliable if the correlation coefficient of the regression line was greater than 0.95. […]

[7] = test system: system L; settings: read-out: reported Km of system L for tryptophan; reported affinity; cited from earlier work
[8] = unlabeled competitor vs radiolabeled tryptophan (125 or 250 nM)
[9] = unlabeled competitor 4 μM, radiolabeled tryptophan 125 nM
[10] = read-out: IC50 for inhibition of radiolabeled tryptophan uptake, radiolabeled tryptophan 125 nM
[11] = uptake of the radiolabeled amino acid, high substrate concentrations (8-64 μM)

SMILES: Cn1cc(C[C@H](N)C(=O)O)c2ccccc21 [1-methyl tryptophan]
competition with tryptophan for the high-affinity system [1, 8]: no competition

SMILES: N[C@@H](Cc1c[nH]c2ccc(O)cc12)C(=O)O [5-hydroxy tryptophan]
competition with tryptophan for the high-affinity system [1, 8]: did not compete
competition with tryptophan for the high-affinity system ([1]; unlabeled competitor vs radiolabeled tryptophan (125 or 250 nM), listed as 5-hydroxy derivative of tryptophan): failed to compete

SMILES: N=C(N)NCCC[C@H](N)C(=O)O [ARG]
effect of 4 μM unlabeled competitor on tryptophan uptake [1]: little impact

IC50 ([1]; saturation kinetics of tryptophan (<1 μM) with or without 500 μM BCH, read-out: IC50 for interaction with the high-affinity system): > 500 µM
IC50 of BCH relative to IC50 of tryptophan ([2]; inhibition of tryptophan transport, radiolabeled tryptophan 125 nM): approximately 100 fold
Ki ([2]; radiolabeled tryptophan 125 nM): 37 µM
IC50 [2, 10]: 37 µM
SMILES: NC1(C(=O)O)CC2CCC1C2 (centres unmarked) [BCH, 2-aminobicyclo(2,2,1)-hepatane-2-carboxylic acid]
mode of inhibition of tryptophan uptake, high-affinity range ([1]; less than 1 μM tryptophan, 500 μM unlabeled BCH): strictly non-competitive; also recorded: weak non-competitive inhibitor
effect of 4 μM unlabeled competitor on tryptophan uptake [1, 9]: minimal effect; also recorded: little impact
competition with tryptophan for the high-affinity system [1, 8]: no evidence of competition; also recorded: did not compete; also recorded: not able to compete
mode of inhibition of tryptophan uptake, system L range ([2]; greater than 8 μM tryptophan, 500 μM unlabeled BCH): competitive inhibitor; also recorded: competitively inhibits
inhibition of tryptophan transport by 8 mM unlabeled substrate ([2]; radiolabeled tryptophan 125 nM, unlabeled substrates 8 mM each): inhibited

SMILES: N[C@H](Cc1c[nH]c2ccccc12)C(=O)O [D-tryptophan]
competition with tryptophan for the high-affinity system [1]: did not compete

SMILES: N[C@@H](Cc1c[nH]cn1)C(=O)O [HIS]
effect of 4 μM unlabeled competitor on tryptophan uptake [1, 9]: little impact

SMILES: CC[C@H](C)[C@H](N)C(=O)O [ILE]
effect of 4 μM unlabeled competitor on tryptophan uptake [1, 9]: little impact

SMILES: NCCCC[C@H](N)C(=O)O [LYS]
effect of 4 μM unlabeled competitor on tryptophan uptake [1, 9]: little impact

SMILES: CSCC[C@H](N)C(=O)O [MET]
effect of 4 μM unlabeled competitor on tryptophan uptake [1, 9]: little impact

SMILES: CC(=O)N[C@@H](Cc1c[nH]c2ccccc12)C(=O)O [N-acetyl tryptophan]
competition with tryptophan for the high-affinity system [1, 8]: did not compete

SMILES: C[C@@H](O)[C@H](N)C(=O)O [THR]
effect of 4 μM unlabeled competitor on tryptophan uptake [1, 9]: little impact

SMILES: N[C@@H](Cc1ccc(O)cc1)C(=O)O [TYR, tyrosine]
effect of 4 μM unlabeled competitor on tryptophan uptake [1, 9]: little impact

SMILES: CC(C)[C@H](N)C(=O)O [VAL]
effect of 4 μM unlabeled competitor on tryptophan uptake [1, 9]: little impact

Km [3, 11]: 26 ± 6 µM
SMILES: CC(C)C[C@H](N)C(=O)O [leucine]
effect of 4 μM unlabeled competitor on tryptophan uptake [1, 9]: little impact
competition with tryptophan for the high-affinity system [1, 8]: do not compete

Km [3, 11]: 29 ± 2 µM
Ki ([2]; radiolabeled tryptophan 125 nM): ~10 µM
SMILES: N[C@@H](Cc1ccccc1)C(=O)O [phenylalanine]
effect of 4 μM unlabeled competitor on tryptophan uptake [1, 9]: little impact
competition with tryptophan for the high-affinity system [1, 8]: do not compete; also recorded: no detectable competition

SMILES: NCCc1c[nH]c2ccc(O)cc12 [serotonin]
competition with tryptophan for the high-affinity system [1, 8]: did not compete

SMILES: N[C@@H](Cc1c[nH]c2ccccc12)C(=O)O [tryptophan]
calculated uptake via system L alone ([3]; Equation 1, 50 nM tryptophan, 1 mM total other competing amino acids): 1.5 fmol 10^6 cells^−1. 10 min^−1
Vmax, system L component ([3]; after macrophage differentiation): 27±4 pmol 10^6 cells^−1. 10 min^−1
Vmax, system L component ([3]; before macrophage differentiation): 14±8 pmol 10^6 cells^−1. 10 min^−1
Km [3]: 27 µM and 30 µM and 20 to 30 µM
Ki ([1]; radiolabeled tryptophan 125 nM, read-out: Ki (fit to Equation 1, single-system model)): 0.36 µM
IC50 [1, 10]: 0.36 µM
effect of 4 μM unlabeled competitor on tryptophan uptake [1, 9]: markedly inhibited
high-affinity inhibition of phenylalanine or leucine uptake [4]: no detectable
Ki ([4]; read-out: Ki of tryptophan versus labeled leucine or phenylalanine uptake): 30 µM
reduction of the rate of tryptophan accumulation at 0° C. ([5]; 0° C. vs 25° C., up to 30 min): 90%
uptake in the absence of sodium relative to uptake in saline ([5]; radiolabeled tryptophan 125 nM, choline chloride vs 150 mM NaCl): 86% and 86±6%
Km [6]: 0.29 ± 0.16 µM
calculated uptake with the selective high-affinity system present [6]: 70 fmol 10^6 cells^−1. 10 min^−1
Km [7]: 8 to 30 µM
